Tests used:
Assay type in all cases: in vivo, mouse
[1] = system: Complex I, Cytochrome C Oxidase, Citrate synthase; experiment: Electron transport chain enzyme activities in heart homogenates; details: TAC hearts, Sirt3Ko and WT heart lysate
Method: (§1) Enzyme Activities. Citrate synthase (CS), Complex I (CI) and Cytochrome C Oxidase (CIV), and Mrpp2 dehydrogenase activities were determined in heart tissue homogenates at 30° C. using a protocol adapted from previously published methods (Spinazzi et al., 2012). Briefly, for CS activity frozen cardiac tissue (25 mg) was homogenized at 4° C. in CelLytic™ MT Cell Lysis Reagent (C3228) and then incubated on ice for 30 minutes. The samples were then centrifuged at 10,000×g for 10 minutes at 4° C. and protein concentration determined. CS activity was analyzed in 100 mM Tris buffer containing 0.1% Triton X-100, pH 8.0 as previously described (Spinazzi et al., 2012). For CIV activity, 25 mg of cardiac tissue was homogenized at 4° C. in 50 mM potassium phosphate buffer containing 1 mM EDTA, and 0.1% Triton X-100 (pH 7.4; final concentration, 5 mg tissue/mL). The samples were incubated on ice for 30 minutes followed by centrifugation at 10,000×g for 10 minutes at 4° C. CIV activity was analyzed in 100 mM potassium phosphate buffer as previously described (Spinazzi et al., 2012). For Cl activity, 25 mg of cardiac tissue was homogenized at 4° C. in 50 mM potassium phosphate buffer containing 1 mM EDTA, and 0.1% Triton X-100 (pH 7.4; final concentration, 5 mg tissue/mL). The samples were incubated on ice for 30 minutes followed by centrifugation at 10,000×g for 10 minutes at 4° C. Cl activity was analyzed in 100 mM potassium phosphate buffer as previously described (Spinazzi et al., 2012). In parallel, a separate reactions containing the same quantity of reagents and sample but with the addition of 10 μl of 1 mM rotenone solution. The reactions were started by adding 6 μl of ubiquinone (10 mM), mix and follow the decrease of absorbance at 340 nm for 2 min. The dehydrogenase activity of Mrpp2 was measured as described (Falk et al., 2016) in the reverse direction for reduction of acetoacetyl-CoA (30 mM) to L-3-hydroxyacyl-CoA. The reaction was monitored as the decrease of absorbance at 340 nm.

[2] = system: heart mRNA levels (Nppa, Ctgf, mtDNA encoded genes, PPARα/RXRα target genes); experiment: RT-PCR of heart transcripts and mitochondrial RNA junctions
Method: RNA Extraction and Quantitative Real-Time Polymerase Chain Reaction (RT-PCR). Total RNA was isolated from frozen heart tissue using the RNeasy fibrous Kit (Qiagen). Total RNA was reverse-transcribed into first-strand cDNA using Iscript (Bio-rad) according to manufacturer's guidelines. Real Time PCR was performed using SYBR green (Bio-Rad). Results of mRNA levels were normalized to 18S rRNA levels and reported as fold-change over control.

[3] = system: Mrpp2; experiment: Mrpp2 dehydrogenase activity in heart homogenates; details: NR treated failing (TAC) hearts, matching sham operated controls
Method: as §1, with “For CIV activity, 25 mg of cardiac tissue was homogenized at 4° C. in 50 mM potassium phosphate buffer containing 1 mM EDTA, and 0.1% Triton X-100 (pH 7.4; final concentration, 5 mg tissue/mL). The samples were incubated on ice for 30 minutes followed by centrifugation at 10,000×g for 10 minutes at 4° C.” left out, “For Cl activity, 25 mg of cardiac tissue was homogenized at 4° C. in 50 mM potassium phosphate buffer containing 1 mM EDTA, and 0.1% Triton X-100 (pH 7.4; final concentration, 5 mg tissue/mL). The samples were incubated on ice for 30 minutes followed by centrifugation at 10,000×g for 10 minutes at 4° C.” left out

[4] = system: retinol oxidation by SDRs; experiment: Retinoid measurements in heart tissue (LC-MS/MS); details: TAC hearts, WT and Sirt3Ko mice
Text: Retinoid measurements. Analysis of all-trans-retinyl ester palmitate (RP), all-trans,-retinol (ROL) was done in collaboration with Dr. Nina Isoherranen laboratory using previously established methods (Czuba et al., 2020). RP, ROL were purchased from Toronto Research Chemicals (North York, ON), and retinyl ester palmitate-d4 (RP-d4) and all-trans-retinol-d6 (ROLd6) were purchased from Cambridge Isotopes (Andover, MA). Blank human serum (DC MASS SPECT GOLD MSG4000) for standard curve and quality control matrix was purchased from Golden West Diagnostics (Temecula, CA). Solvents for liquid chromatography tandem mass spectrometry (LC-MS/MS) were Optima LC-MS grade and purchased from Fisher Scientific (Pittsburgh, PA). […]
RP and ROL concentrations were determined on an AB Sciex 5500 QTRAP mass spectrometer (AB Sciex, Foster City), coupled with an Agilent 1290 UHPLC (Agilent, Santa Clara, CA) using a Ascentis Express RP-amide column (2.1×150 mm, […]) and guard column (2.1×5 mm, 2.7 μm). […]
RP and ROL were detected in positive ion mode atmospheric pressure chemical ionization (APCI) mode using selected reaction monitoring (SRM). […] The CE was 25 V, DP was 60 V, entrance potential was 10 V, and collision exit potential was 10 V. Peaks were integrated and quantified using MultiQuant 2.1.1 (AB Sciex, Foster City, CA). […]

## NC(=O)c1ccc[n+]([C@@H]2O[C@H](CO)[C@@H](O)[C@H]2O)c1 [NR, Nicotinamide riboside chloride]
[1]
  Activity of citrate synthase: no change
  Activity of complex I: restored
  Activity of cytochrome c oxidase (COIV): restored
[2]; Sirt3ko and WT TAC mice
  Atrial natriuretic peptide (Nppa) levels: decreased
  Connective growth factor (Ctgf) levels: decreased
[2]; TAC hearts, Sirt3Ko and WT
  Expression of mtDNA encoded genes (mt-Nd1, mt-Cox1 and mt-Cytb): improved
  Expression of nuclear DNA encoded ETC genes: not changed
[2]; failing (TAC) hearts
  Expression of PPARα target genes (Acadm, Ucp2, Ucp3, Octn2, Cpt1b): increased
[2]; failing hearts of WT and Sirt3Ko mice
  Accumulation of mitochondrial RNA precursor fragments (Nd1-Nd2, Cox1-Cox2 junctions): removed the accumulation of RNA precursor fragments
[3]
  Increase in Mrpp2 dehydrogenase activity: ~2 fold
[4]
  Retinol and retinylpalmitate accumulation (bottleneck in SDR reactions): removed the “bottleneck”

— patent US20240216412A1, “OXIDIZED NICOTINAMIDE ADENINE DINUCLEOTIDE (NAD+) PRECURSOR TREATMENT FOR HEART FAILURE ALLEVIATION INDEPENDENT OF MITOCHONDRIAL PROTEIN DEACETYLATION” (University of Washington, priority 2022, published 2024)
